{
  "source": "patent US20120251495A1",
  "about": "“PTERIN BASED THERAPIES FOR INFLAMMATORY CONDITIONS” (priority 2008, published 2012)",
  "type_in_all_cases": "in vivo",
  "key": {"hepatitis B virus (HBV) [1]": {"tested_on": "hepatitis B virus (HBV)", "test": "Liver HBV DNA by quantitative PCR in HBV transgenic mice", "settings": "female HBV mice; 10 mg/(kg d), per os 14 days"}, "[2]": {"tested_on": "hepatitis B core antigen (HBcAg)", "test": "Liver HBcAg assay in HBV transgenic mice", "settings": "10 mg/(kg d)", "method": "(§1) Experimental design. DCP was administered per os, once daily for 14 days to randomly assigned HBV transgenic mice at 23, 7.3, and 2.3 mg/(kg d). ADV was used as a positive control at 10 mg/(kg d) using the same treatment schedule and vehicle (0.4% CMC). On day 14, mice were euthanized to collect serum and liver samples to perform liver HBV DNA, liver core and serum HBe assays, serum cytokine/chemokine profiles, and IDO metabolite assays.\nLiver HBcAg assay. Liver biopsies were processed for detection of hepatitis B core antigen (HBcAg) (Motley J D, Motter N E, Taro B, Lay M & Fairman J. Efficacy of cationic lipid-DNA complexes (CLDC) on hepatitis B virus in transgenic mice. Antiviral Res 2008; 79:71-79). Three different parameters were obtained from each tissue section. […] The first two parameters were obtained by counting cells surrounding central veins as follows: the total number of cells, the number of cells with stained nuclei, and the number of cells with stained cytoplasms. The identities of the samples were blinded to person counting. The stained nuclei counts or the stained cytoplasm counts were divided by the total cells. Three central vein areas were counted for each slide sample. For the third parameter, a field not in a central vein area was counted for the total number of stained nuclei. One-quarter of the field was counted. Three such fields were counted per liver section. The identity of the samples was blinded to the person reading the slides."}, "HBe antigen": {"tested_on": "HBe antigen", "test": "Sera HBeAg ELISA in HBV transgenic mice", "settings": "females; 10 mg/(kg d)", "method": "as §1\nSera HBeAg. Whole blood samples were obtained during necropsy by cardiac puncture, and processed for an HBeAg-specific ELISA (International Immuno Diagnostics, Foster City Calif.) (Money J D, Motter N E, Taro B, Lay M & Fairman J. Efficacy of cationic lipid-DNA complexes (CLDC) on hepatitis B virus in transgenic mice. Antiviral Res 2008; 79:71-79). Using the known PEI (Paul Ehrlich Institute) units for the calibrator, PEI units were formulated for the serial dilutions of the positive serum. A graph was generated, and extrapolation was used to assign a PEI unit value for each sample."}, "hepatitis B virus (HBV) [3]": {"tested_on": "hepatitis B virus (HBV)", "test": "Liver HBV DNA by Southern blot hybridization in HBV transgenic mice", "settings": "10 mg/(kg d)", "source_text": "Animals. Homozygous adult female and male transgenic HBV mice were used (20.6±2.8 g). The mice were originally obtained from Dr. Frank Chisari (Scripps Research Institute, La Jolla, Calif.) (Guidotti L G, Matzke B, Schaller H & Chisari F V. High-level hepatitis B virus replication in transgenic mice. J Virol 1995; 69:6158-6169) and were subsequently raised in the Biosafety Level 3 (BL-3) area of the AAALAC-accredited USU Laboratory Animal Research Center (LARC). The animals were derived from founder 1.3.32 (Guidotti L G, Matzke B, Schaller H & Chisari F V. High-level hepatitis B virus replication in transgenic mice. J Virol 1995; 69:6158-6169). This study was conducted in accordance with the approval of the Institutional Animal Care and Use Committee of Utah State University.\nas §1\nLiver HBV DNA assays. Southern blot hybridization and quantitative PCR (qPCR) were performed on liver tissues (Morrey J D, Motter N E, Tam B, Lay M & Fairman J. Efficacy of cationic lipid-DNA complexes (CLDC) on hepatitis B virus in transgenic mice. Antiviral Res 2008; 79:71-79). For Southern blot hybridization, the ratio of the viral DNA bands to the transgene band was used to determine the concentration of viral DNA per host DNA. This calculation was based upon the knowledge that there were 1.3 copies of the transgene present per host cell with this line of transgenic mice. The transgene was used as an internal indicator to calculate the pg of HBV DNA per μg of homozygous cellular host DNA. For qPCR, the assay was run with a series of 10-fold dilutions of pooled liver DNA from HBV transgenic mice to obtain a standard curve. Mean C(t) values were obtained for duplicates of each sample. The mean C(t) values of each sample were used to obtain the log relative DNA values using a formula of the fit line of the standard curve."}},
  "data": [
    {"smiles": "CC(C)(C)C(=O)OCOP(=O)(COCCn1cnc2c(N)ncnc21)OCOC(=O)C(C)(C)C", "note": "[Adefovir dipivoxil, adefovir dipivoxil, reference compound]", "values": [
      {"measurement": "Log HBV DNA (PCR) versus controls", "setting": "hepatitis B virus (HBV) [1]", "value": "significant treatment decreases"},
      {"measurement": "HBcAg Stained nuclei/total, Female levels (mean ± SEM)", "setting": "[2]; female", "value": "27.7 ± 3.0"},
      {"measurement": "HBcAg Stained nuclei/total, Male levels (mean ± SEM)", "setting": "[2]; male", "value": "14.1 ± 3.5"},
      {"measurement": "HBe antigen (ELISA) versus controls", "setting": "HBe antigen", "value": "significant increase"},
      {"measurement": "Liver HBV DNA (Southern), Female levels (mean ± SEM)", "setting": "hepatitis B virus (HBV) [3]; female", "value": "3.5 ± 0.55", "unit": "pg/µg"},
      {"measurement": "Liver HBV DNA (Southern), Male levels (mean ± SEM)", "setting": "hepatitis B virus (HBV) [3]; male", "value": "1.5 ± 0.37", "unit": "pg/µg"}
    ]}
  ]
}
